Assay results published in patent US20250215032A1, “PHOSPHORYLPURINONE COMPOUNDS FOR THE TREATMENT OF CANCER” (Hoffmann-La Roche Inc., priority 2022, published 2025).
pEC50: −log10 of the molar value. Converted amounts (≈) assume the structure as drawn.

Columns and labels:
[1] = molecular target: T1, human TLR7 (Homo sapiens, UniProt Q9NYK1); experiment: HEK293-Blue-hTLR7 cells assay (SEAP reporter, NF-κB activation)
T1 sequence (Q9NYK1 27-1049): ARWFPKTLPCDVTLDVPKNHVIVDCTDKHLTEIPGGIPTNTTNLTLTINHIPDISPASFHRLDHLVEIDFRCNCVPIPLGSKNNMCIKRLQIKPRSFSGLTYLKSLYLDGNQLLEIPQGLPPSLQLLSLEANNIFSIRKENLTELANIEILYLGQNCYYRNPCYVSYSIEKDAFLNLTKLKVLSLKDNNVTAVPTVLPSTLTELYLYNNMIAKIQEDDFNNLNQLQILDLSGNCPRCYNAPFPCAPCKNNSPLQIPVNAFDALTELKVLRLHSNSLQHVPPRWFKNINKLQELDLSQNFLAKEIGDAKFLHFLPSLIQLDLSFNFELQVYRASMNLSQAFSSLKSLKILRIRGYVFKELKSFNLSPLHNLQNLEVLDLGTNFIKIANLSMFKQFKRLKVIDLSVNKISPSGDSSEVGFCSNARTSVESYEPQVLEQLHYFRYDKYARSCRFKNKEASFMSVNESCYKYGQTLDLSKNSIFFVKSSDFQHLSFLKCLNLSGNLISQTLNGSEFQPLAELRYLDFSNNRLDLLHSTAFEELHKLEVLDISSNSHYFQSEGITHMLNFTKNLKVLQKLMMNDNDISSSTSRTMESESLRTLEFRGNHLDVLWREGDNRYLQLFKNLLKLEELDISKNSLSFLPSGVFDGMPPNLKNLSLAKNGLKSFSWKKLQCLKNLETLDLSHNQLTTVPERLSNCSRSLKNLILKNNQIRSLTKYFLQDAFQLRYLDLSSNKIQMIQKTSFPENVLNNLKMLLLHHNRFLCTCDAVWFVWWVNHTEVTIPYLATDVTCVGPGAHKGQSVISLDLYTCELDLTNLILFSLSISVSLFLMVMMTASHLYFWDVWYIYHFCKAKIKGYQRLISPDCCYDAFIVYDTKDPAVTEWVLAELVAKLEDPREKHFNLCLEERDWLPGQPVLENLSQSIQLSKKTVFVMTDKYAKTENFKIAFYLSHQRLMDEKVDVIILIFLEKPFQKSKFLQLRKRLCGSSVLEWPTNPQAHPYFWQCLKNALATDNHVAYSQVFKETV
Text: A stable HEK293-Blue-h TLR7 cell line was purchased from InvivoGen (Cat. #: hkb-htlr7, San Diego, California, USA). These cells were designed for studying the stimulation of human TLR7 by monitoring the activation of NF-κB. A SEAP (secreted embryonic alkaline phosphatase) reporter gene was placed under the control of the IFN-β minimal promoter fused to five NF-κB and AP-1-binding sites. The SEAP was induced by activating NF-κB and AP-1 via stimulating HEK-Blue hTLR7 cells with TLR7 ligands. Therefore the reporter expression was regulated by the NF-κB promoter upon stimulation of human TLR7 for 20 hrs. The cell culture supernatant SEAP reporter activity was determined using QUANTI-Blue™ kit (Cat. #: rep-qb1, Invivogen, San Diego, Ca, USA) at a wavelength of 640 nm, a detection medium that turns purple or blue in the presence of alkaline phosphatase.
HEK293-Blue-hTLR7 cells were incubated at a density of 250,000˜450,000 cells/mL in a volume of 180 μL in a 96-well plate in Dulbecco's Modified Eagle's medium (DMEM) containing 4.5 g/L glucose, 50 U/mL penicillin, 50 mg/mL streptomycin, 100 mg/mL Normocin, 2 mM L-glutamine, 10% (V/V) heat-inactivated fetal bovine serum for 24 hrs. Then the HEK293-Blue-hTLR7 cells were incubated with addition of 20 μL test compound in a serial dilution in the presence of final DMSO at 1% and perform incubation under 37° C. in a CO2 incubator for 20 hrs.

[2] = Lyophilisation solubility assay (LYSA), kinetic solubility; type: physicochemical; settings: aqueous buffer; 0.05 M phosphate buffer (pH 6.5), from 10 mM DMSO stock after evaporation
Text: The solubility of a substance can be broadly defined as the maximum amount of the substance that dissolves in a specified volume of solvent. However, it is important to understand that the solubility of a compound can vary drastically depending on the condition of the solvent (e.g. temperature and pH) and the physiochemical properties of the compound (e.g. ionisation and crystallinity). These critical factors need to be considered during solubility determination in order to generate high quality solubility data that will be useful in the progression of compounds through the discovery and development stages. The kinetic solubility of a compound is the maximum solubility of the fastest precipitating species of the compound; this is often measured using a stock solution of the compound dissolved in an organic solvent, typically dimethyl sulfoxide (DMSO), as the starting material. […] The precipitate formed, which is rarely determined during the assessment, could be any combination of various possible solid states of the compound. Given the level of supersaturation that could occur when an organic solvent is diluted in water, kinetic solubility values are typically higher than the corresponding thermodynamic (equilibrium) solubility values. Solubility assays in the early discovery process often determine kinetic solubility. The lyophilisation solubility assay (LYSA) is a high throughput kinetic solubility assay for the early drug discovery process.
Samples were prepared in duplicate from 10 mM DMSO stock solution. After evaporation of DMSO with a centrifugal vacuum evaporator, the compounds were solved in 0.05 M phosphate buffer (pH 6.5), stirred for one hour and shaken for two hours. After one night, the solutions were filtered using a microtiter filter plate. Then the filtrate and its 1/10 dilution were analyzed by HPLC-UV. […] The results were in μg/mL. […] It should be noted that metastable solid phases may form during the evaporation step, and the method might therefore produce higher solubility values than assays using the stable polymorph as the starting material.

[3] = Thermodynamic solubility assay (THESA), equilibrium solubility; type: physicochemical; settings: 22 °C, aqueous buffer, thermodynamic from solid; 50 mM phosphate buffer (pH 6.5), room temperature (22±2° C.)
Procedure: The thermodynamic (equilibrium) solubility is the saturation solubility of a compound at the end of the dissolution process, where the dissolved compound is in equilibrium with the undissolved material in excess. The thermodynamic solubility is determined by dispensing a solid compound into a solvent. This is often deemed as the true solubility of the compound and is a critical piece of information in formulation development. The thermodynamic solubility assay (THESA) is a widely used tool for the measurement of equilibrium solubility for the later drug discovery process and is considered as a gold standard solubility assay.
Approximately 1-2 mg of each compound was added into 300 μL of 50 mM phosphate buffer (pH 6.5) at room temperature (22±2° C.). Each sample is placed in a microanalysis tube, which was sonicated for 1 h and shaken for 2 h. All suspensions were left overnight (about 16 h). On the next day, the samples were filtered into a V-bottom plate with a micronic filterplate to separate the solid material from the solution. Then, all solutions were diluted into 96 well V-bottom microplates and analyzed by UPLC-UV. The calibration line was established by UPLC using 5 different dilutions of the compound in a DMSO stock solution, made in micronic tubes (concentration approximately 1 mg/mL). Dilutions took place with DMSO. From this regression equation the solubility of the compound was determined. In cases where the drug was completely dissolved in the buffer, the value for equilibrium solubility was assumed to be higher than the value determined by UPLC and reported as such.

| SMILES | pEC50 [1] | solubility kinetic [2] [mg/mL] | solubility thermodynamic [3] [mg/mL] |
| --- | --- | --- | --- |
| CP(C)(=O)c1nc(N)c2[nH]c(=O)n(Cc3ccc(NCCN4CCCC4)nc3)c2n1 [Example 7, 6-amino-2-dimethylphosphoryl-9-[[6-(2-pyrrolidin-1-ylethylamino)-3-pyridyl]methyl]-7H-purin-8-one] | 7.42 | > 0.54 |  |
| CP(C)(=O)c1nc(N)c2[nH]c(=O)n(Cc3ccc(N4CCC(N)C4)nc3)c2n1 (stereo not shown) [Example 3, 6-amino-9-[[6-(3-aminopyrrolidin-1-yl)-3-pyridyl]methyl]-2-dimethylphosphoryl-7H-purin-8-one] | 7.55 | > 0.6 |  |
| CC[P@](C)(=O)c1nc(N)c2[nH]c(=O)n(Cc3ccc(N4CCN(C)CC4)nc3)c2n1 [Example 13-B, 6-amino-2-[(S)-ethyl(methyl)phosphoryl]-9-[[6-(4-methylpiperazin-1-yl)-3-pyridyl]methyl]-7H-purin-8-one] |  | > 0.53 |  |
| CC[P@@](C)(=O)c1nc(N)c2[nH]c(=O)n(Cc3ccc(N4CCN(S(C)(=O)=O)CC4)nc3)c2n1 [Example 14-A, 6-amino-2-[(R)-ethyl(methyl)phosphoryl]-9-[[6-(4-methylsulfonylpiperazin-1-yl)-3-pyridyl]methyl]-7H-purin-8-one] |  | 0.15 |  |
| CN1CCOC2(CCN(c3ccc(Cn4c(=O)[nH]c5c(N)nc(P(C)(C)=O)nc54)cn3)CC2)C1 [Example 10, 6-amino-2-dimethylphosphoryl-9-[[6-(4-methyl-1-oxa-4,9-diazaspiro[5.5]undecan-9-yl)-3-pyridyl]methyl]-7H-purin-8-one] | 7.62 | > 0.65 |  |
| CC[P@@](C)(=O)c1nc(N)c2[nH]c(=O)n(Cc3ccc(NCCNC)nc3)c2n1 [Example 17, 6-amino-2-[(R)-ethyl(methyl)phosphoryl]-9-[[6-[2-(methylamino)ethylamino]-3-pyridyl]methyl]-7H-purin-8-one] | 7.35 | > 0.54 |  |
| CC1(C)CN(c2ccc(Cn3c(=O)[nH]c4c(N)nc(P(C)(C)=O)nc43)cn2)CCN1 [Example 4, 6-amino-2-dimethylphosphoryl-9-[[6-(3,3-dimethylpiperazin-1-yl)-3-pyridyl]methyl]-7H-purin-8-one] | 8.00 | > 0.64 |  |
| CC[P@](C)(=O)c1nc(N)c2[nH]c(=O)n(Cc3ccc(N4CCN(S(C)(=O)=O)CC4)nc3)c2n1 [Example 14-B, 6-amino-2-[(S)-ethyl(methyl)phosphoryl]-9-[[6-(4-methylsulfonylpiperazin-1-yl)-3-pyridyl]methyl]-7H-purin-8-one] |  | 0.17 |  |
| CN(C)CC1CCN(c2ccc(Cn3c(=O)[nH]c4c(N)nc(P(C)(C)=O)nc43)cn2)C1 (stereo not shown) [Example 9, 6-amino-9-[[6-[3-[(dimethylamino)methyl]pyrrolidin-1-yl]-3-pyridyl]methyl]-2-dimethylphosphoryl-7H-purin-8-one] | 7.68 | > 0.65 |  |
| CP(C)(=O)c1nc(N)c2[nH]c(=O)n(Cc3ccc(NC4CCOCC4)nc3)c2n1 [Example 8, 6-amino-2-dimethylphosphoryl-9-[[6-(tetrahydropyran-4-ylamino)-3-pyridyl]methyl]-7H-purin-8-one] | 7.41 | > 0.52 |  |
| CCP(=O)(CC)c1nc(N)c2[nH]c(=O)n(Cc3ccc(NCCN(C)C)nc3)c2n1 [Example 19, 6-amino-2-diethylphosphoryl-9-[[6-[2-(dimethylamino)ethylamino]-3-pyridyl]methyl]-7H-purin-8-one] | 8.05 | > 0.58 | 2.37 (≈ 5.47 mM) |
| CP(C)(=O)c1nc(N)c2[nH]c(=O)n(Cc3ccc(N4CC5CCC4CN5)nc3)c2n1 (stereo not shown) [Example 5, 6-amino-9-[[6-(2,5-diazabicyclo[2.2.2]octan-2-yl)-3-pyridyl]methyl]-2-dimethylphosphoryl-7H-purin-8-one] | 7.92 | > 0.57 |  |
| CN1CCC(Nc2ccc(Cn3c(=O)[nH]c4c(N)nc(P(C)(C)=O)nc43)cn2)C1 (stereo not shown) [Example 11, 6-amino-2-dimethylphosphoryl-9-[[6-[(1-methylpyrrolidin-3-yl)amino]-3-pyridyl]methyl]-7H-purin-8-one] | 7.55 | > 0.62 |  |
| CP(C)(=O)c1nc(N)c2[nH]c(=O)n(Cc3ccc(N4CC5CNCC5C4)nc3)c2n1 (stereo not shown) [Example 6, 9-[[6-(2,3,3a,4,6,6a-hexahydro-1H-pyrrolo[3,4-c]pyrrol-5-yl)-3-pyridyl]methyl]-6-amino-2-dimethylphosphoryl-7H-purin-8-one] | 7.57 | > 0.63 |  |
| CCN(C)CCNc1ccc(Cn2c(=O)[nH]c3c(N)nc(P(C)(C)=O)nc32)cn1 [Example 12, 6-amino-2-dimethylphosphoryl-9-[[6-[2-[ethyl(methyl)amino]ethylamino]-3-pyridyl]methyl]-7H-purin-8-one] | 7.08 | > 0.56 |  |
